SMILES strings stand for the structures. Where only a bound is given, the exact number is not on record here.

The subject of one data set is HBV. Put plainly: HepAD38 antiviral assay: reduction of viral product accumulation (virion DNA by qPCR, HBsAg or HBeAg by ELISA). The settings on record: Hepatitis B virus, 120 h; HepAD38 cells, five days after compound addition; 50% reduction of viral product accumulation relative to no drug controls; read-out: HepAD38 EC50. In kind it is cell-based. The procedure: (§1) Methods: HepAD38 cells are maintained as previously reported (Ladner et al, Antimicrob. Agents Chemother. 1997, […], 1715). Briefly, cells are passaged upon attaining confluency in DMEM/F12 media in the presence of 10% FBS, Penn/Strep, 250 μg/mL G418, and 1 ug/ml tetracycline. Novel compounds are screened by first washing cells three times with PBS to remove tetracycline, and plating in 96 well plates at 35,000 cells/well. Compounds dissolved in DMSO are then diluted 1:200 into wells containing cells. Five days after compound addition, material is harvested for analysis. For an extended 8 day analysis, cells are plated and treated as described above, but media and compound are refreshed on d2 and d5 post initial treatment.
On harvest day, virion DNA is obtained by lysing with Sidestep Lysis and Stabilization Buffer and then quantified via quantitative real time PCR. Commercially available ELISA kits are used to quantitate the viral proteins HBsAg (Alpco) or HbeAg (US Biological) by following the manufacturer's recommended protocol after diluting samples to match the linear range of their respective assays. Irrespective of readout, compound concentrations that reduce viral product accumulation in the cell lysates or supernatants by 50% relative to no drug controls (EC50) are reported; EC50 ranges are as follows: A<1 μM; B 1-10 μM; C>10 μM.
(In general: Real-time PCR tracks product formation cycle by cycle.)
In general, EC50 refers to the concentration that produces a half-maximal response. `O=S(=O)(c1cc2nc(-c3ccccc3)[nH]c2cc1Cl)N1CCC(O)CC1` [Example 2]: the concentration giving a half-maximal response (EC50) is over 10000 nM.
Same read-out and setting: for `O=S(=O)(c1cc2nc(-c3cc(F)c(F)c(F)c3)[nH]c2cc1Cl)N1CCC(O)CC1` [Example 3] the value was over 10000 nM; for `O=S(=O)(c1c(Cl)ccc2c(-c3ccccc3)n[nH]c12)N1CCC(O)CC1` [Example 4], over 10000 nM.
As to `O=S(=O)(c1c(Cl)ccc2c(-c3cc(F)c(F)c(F)c3)n[nH]c12)N1CCC(O)CC1` [Example 5], the EC50 was 1000 to 10000 nM.
The same measure, in the same setting: for `O=S(=O)(c1cc(-c2n[nH]c3ccccc23)ccc1Cl)N1CCC(O)CC1` [Example 6] the value was over 10000 nM.
As to `O=S(=O)(c1cc(-c2ncc(-c3ccc(F)c(F)c3)[nH]2)cs1)N1CCC(O)CC1` [Example 7], the EC50 is 1000 to 10000 nM.
Turning to `O=S(=O)(c1cc(-c2cc(-c3ccc(F)c(F)c3)[nH]n2)ccc1Cl)N1CCC(O)CC1` [Example 8], the EC50 was under 1000 nM.
Turning to `O=S(=O)(c1cc(-c2nc3ccccc3[nH]2)ccc1Cl)N1CCC(O)CC1` [Example 9], the EC50 was over 10000 nM.
For `O=S(=O)(NCCCNc1ncco1)c1cc(-c2nc(-c3ccc(Br)c(F)c3)c[nH]2)ccc1Cl` [Example 237], the EC50 was under 1000 nM.
Same read-out and setting: in the case of `O=S(=O)(c1cc(-c2nc(-c3ccc(CC(F)(F)F)cc3)c[nH]2)ccc1Cl)N1CCC(O)CC1` [Example 238] it was over 10000 nM; in that of `O=S(=O)(c1cc(-c2nc(-c3cccc(CC(F)(F)F)c3)c[nH]2)ccc1Cl)N1CCC(O)CC1` [Example 239], over 10000 nM; in that of `COC1CCCCC1N1CCN(S(=O)(=O)c2cc(-c3nc(-c4ccc(Br)c(F)c4)c[nH]3)ccc2Cl)CC1` (centres unmarked) [Example 240], under 1000 nM.
The same measure, in the same setting: in the case of `COC(=O)NCCCCCCNS(=O)(=O)c1cc(-c2nc(-c3ccc(Br)c(F)c3)c[nH]2)ccc1Cl` [Example 241] it was under 1000 nM; in that of `CC(C)(C)OC(=O)NCCCCCCNS(=O)(=O)c1cc(-c2nc(-c3ccc(Br)c(F)c3)c[nH]2)ccc1Cl` [Example 242], under 1000 nM.
Same read-out and setting: in the case of `O=S(=O)(c1cc(-c2ncc(-c3ccc(Br)c(F)c3)[nH]2)ccc1Cl)N1C[C@@H]2[C@@H](O)[C@@H]2C1` [Example 243] it was under 1000 nM.
Turning to `C[C@@H]1CCN(S(=O)(=O)c2cc(-c3nc(-c4ccc(Br)c(F)c4)c[nH]3)ccc2Cl)C[C@@H]1O` [Example 244], the EC50 is under 1000 nM.
Same read-out and setting: for `C[C@H]1CCN(S(=O)(=O)c2cc(-c3nc(-c4ccc(Br)c(F)c4)c[nH]3)ccc2Cl)C[C@@H]1O` [Example 245] the value was under 1000 nM; for `O=S(=O)(c1cc(-c2ncc(-c3ccc(Br)c(F)c3)[nH]2)ccc1Cl)N1CC[C@@H](O)C1` [Example 247], over 10000 nM.
The same measure, in the same setting: for `O=S(=O)(c1cc(-c2nc(-c3ccc(F)c(C(F)F)c3)c[nH]2)ccc1Cl)N1CCC(O)CC1` [Example 248] the value was over 10000 nM.
Same read-out and setting: in the case of `O=S(=O)(c1cc(-c2nc(-c3ccc(Br)c(F)c3)c[nH]2)ccc1Cl)N1CCN(C2CCCCC2F)CC1` (centres unmarked) [Example 249] it was under 1000 nM; in that of `O=S(=O)(c1cc(-c2nc(-c3ccc(Br)c(F)c3)c[nH]2)ccc1Cl)N1CCN([C@@H]2CCCC[C@H]2O)CC1` [Example 250], under 1000 nM; in that of `COC(=O)NCCCCCCCNS(=O)(=O)c1cc(-c2nc(-c3ccc(Br)c(F)c3)c[nH]2)ccc1Cl` [Example 251], under 1000 nM.
For `CC(C)(C)OC(=O)NCCCCCCCNS(=O)(=O)c1cc(-c2nc(-c3ccc(Br)c(F)c3)c[nH]2)ccc1Cl` [Example 252], the EC50 is under 1000 nM.
Same read-out and setting: for `O=S(=O)(c1cc(-c2nc(-c3ccc(Br)c(F)c3)c[nH]2)ccc1Cl)N1CC[C@@H](CO)C1` [Example 253] the value was under 1000 nM.
Still for that read-out and setting: in the case of `O=S(=O)(c1cc(-c2nc(-c3ccc(Br)c(F)c3)c[nH]2)ccc1Cl)N1CC[C@H](CO)C1` [Example 254] it was under 1000 nM; in that of `O=S(=O)(c1cc(-c2nc(-c3ccc(Br)c(F)c3)c[nH]2)ccc1Cl)N1CC(O)C(CO)C1` (centres unmarked) [Example 255], under 1000 nM.
Turning to `O=S(=O)(c1cc(-c2ncc(-c3ccc(Br)c(F)c3)[nH]2)ccc1Cl)N1CCC2(O)CC2C1` (centres unmarked) [Example 256], the EC50 was under 1000 nM.
Same read-out and setting: for `O=S(=O)(c1cc(-c2ncc(-c3ccc(Br)c(F)c3)[nH]2)ccc1Cl)N1CCC2CC2(O)C1` (centres unmarked) [Example 257] the value was under 1000 nM; for `CC1(C)CN(S(=O)(=O)c2cc(-c3ncc(-c4ccc(Br)c(F)c4)[nH]3)ccc2Cl)CCC1O` (centres unmarked) [Example 258], under 1000 nM; for `O=S(=O)(c1cc(-c2nc(-c3ccc(Br)c(F)c3)c[nH]2)ccc1Cl)N1C[C@H](O)[C@@H](O)C1` [Example 259], under 1000 nM.
The same measure, in the same setting: in the case of `O=S(=O)(c1cc(-c2ncc(-c3ccc(Br)c(F)c3)[nH]2)ccc1Cl)N1CCC[C@@H](CO)C1` [Example 261] it was under 1000 nM; in that of `O=S(=O)(c1cc(-c2ncc(-c3ccc(Br)c(F)c3)[nH]2)ccc1Cl)N1CCC[C@H](CO)C1` [Example 262], under 1000 nM; in that of `O=S(=O)(c1cc(-c2nc(-c3ccc(Br)c(F)c3)c[nH]2)ccc1Cl)N1CCC[C@H](O)[C@H](O)C1` [Example 263], under 1000 nM.
On the same count and under the same terms, for `O=S(=O)(c1cc(-c2nc(-c3ccc(Br)c(F)c3)c[nH]2)ccc1Cl)N1CCC[C@@H](O)[C@@H](O)C1` [Example 264] the value was under 1000 nM; for `O=S(=O)(c1cc(-c2nc(-c3ccc(Br)c(F)c3)c[nH]2)ccc1Cl)N1CCn2c(nnc2C(F)(F)F)C1` [Example 265], under 1000 nM; for `O=S(=O)(c1cc(-c2nc(-c3ccc(Br)c(F)c3)c[nH]2)ccc1Cl)N1CCCOCC1` [Example 266], under 1000 nM.
`O=S(=O)(c1cc(-c2nc(-c3ccc(Br)c(F)c3)c[nH]2)ccc1F)N1CCC(O)CC1` [Example 267]: the EC50 is under 1000 nM.
On the same count and under the same terms, for `O=S(=O)(c1cc(-c2ncc(-c3ccc(Br)c(F)c3)[nH]2)ccc1Cl)N1CCC[C@@H](O)C1` [Example 268] the value was under 1000 nM; for `O=S(=O)(c1cc(-c2ncc(-c3ccc(Br)c(F)c3)[nH]2)ccc1Cl)N1CCCCC(CO)C1` (centres unmarked) [Example 269], under 1000 nM.
The same measure, in the same setting: in the case of `O=S(=O)(c1cc(-c2ncc(-c3ccc(Br)c(F)c3)[nH]2)ccc1Cl)N1CC[C@H](O)[C@@H](C(F)(F)F)C1` [Example 270] it was under 1000 nM.
For `O=S(=O)(c1cc(-c2ncc(-c3ccc(Br)c(F)c3)[nH]2)ccc1Cl)N1CC[C@H](O)C1` [Example 271], the EC50 is under 1000 nM.
Still for that read-out and setting: in the case of `COC(=O)N1C[C@@H]2[C@@H](CNS(=O)(=O)c3cc(-c4ncc(-c5ccc(Br)c(F)c5)[nH]4)ccc3Cl)[C@@H]2C1` [Example 272] it was 1000 to 10000 nM; in that of `COC(=O)NC1CN(S(=O)(=O)c2cc(-c3ncc(-c4ccc(Br)c(F)c4)[nH]3)ccc2Cl)C1` [Example 273], under 1000 nM.
The same measure, in the same setting: in the case of `COC(=O)NCC1CCN(S(=O)(=O)c2cc(-c3ncc(-c4ccc(Br)c(F)c4)[nH]3)ccc2Cl)C1` (centres unmarked) [Example 274] it was under 1000 nM; in that of `O=S(=O)(c1cc(-c2nc(-c3ccc(Br)c(F)c3)c[nH]2)ccc1Cl)N1C[C@H](O)C[C@@H]2C[C@@H]2C1` [Example 275], under 1000 nM; in that of `O=S(=O)(c1cc(-c2nc(-c3ccc(Br)c(F)c3)c[nH]2)ccc1Cl)N1CCN(c2ncccc2F)CC1` [Example 276], under 1000 nM.
On the same count and under the same terms, in the case of `O=S(=O)(c1cc(-c2nc(-c3ccc(Br)c(F)c3)c[nH]2)ccc1Cl)N1CCC[C@@H](O)[C@H](O)C1` [Example 277] it was under 1000 nM; in that of `O=S(=O)(c1cc(-c2nc(-c3ccc(Br)c(F)c3)c[nH]2)ccc1Cl)N1CCC[C@H](O)[C@@H](O)C1` [Example 278], under 1000 nM; in that of `O=S(=O)(c1cc(-c2nc(-c3ccc(Br)c(F)c3)c[nH]2)ccc1Cl)N1CCN(c2ncccc2Cl)CC1` [Example 279], under 1000 nM.
Take `O=S(=O)(c1cc(-c2nc(-c3ccc(Br)c(F)c3)c[nH]2)ccc1Cl)N1CCN(c2cc(Cl)ccn2)CC1` [Example 280]: the EC50 is under 1000 nM.
On the same count and under the same terms, in the case of `O=S(=O)(c1cc(-c2nc(-c3ccc(Br)c(F)c3)c[nH]2)ccc1Cl)N1CCN(c2ccc(Cl)cn2)CC1` [Example 281] it was under 1000 nM.
On the same count and under the same terms, for `O=S(=O)(c1cc(-c2nc(-c3ccc(Br)c(F)c3)c[nH]2)ccc1Cl)N1CCN(c2cccc(Cl)n2)CC1` [Example 282] the value was under 1000 nM; for `O=S(=O)(c1cc(-c2nc(-c3ccc(Br)c(F)c3)c[nH]2)ccc1Cl)N1C[C@H](O)CC[C@@H](O)C1` [Example 283], under 1000 nM; for `O=S(=O)(c1cc(-c2nc(-c3ccc(Br)c(F)c3)c[nH]2)ccc1Cl)N1C[C@H](O)CC[C@H](O)C1` [Example 284], under 1000 nM.

System in a further data set: not listed separately
Briefly: Compound toxicity, ATPLite total ATP levels. Conditions: human, HepAD38 cells; 15,000 cells/well, three days after compound addition; 50% reduction of total ATP levels relative to no drug controls. In kind it is cell-based. The procedure:
as §1
Compound toxicity is evaluated by seeding cells at 15,000 cells/well and treating with compound as described above. Three days after compound addition, cells are treated with ATPLite reagent and compound concentrations that reduce total ATP levels in wells by 50% relative to no drug controls (CC50) are reported; CC50 ranges are as follows: A>30 μM; B 10-30 μM; C<10 μM.
A general note: In ATP-based viability assays light output follows the ATP content of the culture.
The CC50 is the concentration giving 50% cytotoxicity. A higher CC50 goes with better tolerance by the cells. The compound `O=S(=O)(c1cc2nc(-c3ccccc3)[nH]c2cc1Cl)N1CCC(O)CC1` [Example 2] had a CC50 at 3 days of under 10 µM.
Take `O=S(=O)(c1cc2nc(-c3cc(F)c(F)c(F)c3)[nH]c2cc1Cl)N1CCC(O)CC1` [Example 3]: the CC50 at 3 days is over 30 µM.
The same measure, in the same setting: for `O=S(=O)(c1c(Cl)ccc2c(-c3ccccc3)n[nH]c12)N1CCC(O)CC1` [Example 4] the value was over 30 µM; for `O=S(=O)(c1c(Cl)ccc2c(-c3cc(F)c(F)c(F)c3)n[nH]c12)N1CCC(O)CC1` [Example 5], over 30 µM; for `O=S(=O)(c1cc(-c2n[nH]c3ccccc23)ccc1Cl)N1CCC(O)CC1` [Example 6], over 30 µM.
Still for that read-out and setting: in the case of `O=S(=O)(c1cc(-c2ncc(-c3ccc(F)c(F)c3)[nH]2)cs1)N1CCC(O)CC1` [Example 7] it was over 30 µM; in that of `O=S(=O)(c1cc(-c2cc(-c3ccc(F)c(F)c3)[nH]n2)ccc1Cl)N1CCC(O)CC1` [Example 8], 10 to 30 µM.
On the same count and under the same terms, in the case of `O=S(=O)(c1cc(-c2nc3ccccc3[nH]2)ccc1Cl)N1CCC(O)CC1` [Example 9] it was 10 to 30 µM.

The values above are taken from US10442788B2, “Hepatitis B antiviral agents” (ENANTA PHARMACEUTICALS, INC., priority 2015, dated 2019).
